Assay results taken from US10065963B2 (Incyte Corporation, priority 2015, dated 2018).
Where a name gives a salt, the structure may show the parent alone. Read-outs that look alike come from different tables or passages of the source.

Experiments:
[1] = tested on: Phosphorylated Ribosomal Protein S6 (RPS6) in THP-1 cells; experiment: THP-1 RPS6 ELISA assay; assay type: cell-based, human; settings: 10 nM MCP-1, read-out: PI3Kγ_THP1_RPS6_ELISA IC50
[2] = target: PI3Kγ (p110γ) Recombinant Human Protein (Homo sapiens (Human), UniProt P48736); experiment: PI3K-γ scintillation proximity assay; assay type: biochemical; settings: 2 μM ATP, 20 μM PIP2
Chain of PI3Kγ (p110γ) Recombinant Human Protein (P48736 whole entry): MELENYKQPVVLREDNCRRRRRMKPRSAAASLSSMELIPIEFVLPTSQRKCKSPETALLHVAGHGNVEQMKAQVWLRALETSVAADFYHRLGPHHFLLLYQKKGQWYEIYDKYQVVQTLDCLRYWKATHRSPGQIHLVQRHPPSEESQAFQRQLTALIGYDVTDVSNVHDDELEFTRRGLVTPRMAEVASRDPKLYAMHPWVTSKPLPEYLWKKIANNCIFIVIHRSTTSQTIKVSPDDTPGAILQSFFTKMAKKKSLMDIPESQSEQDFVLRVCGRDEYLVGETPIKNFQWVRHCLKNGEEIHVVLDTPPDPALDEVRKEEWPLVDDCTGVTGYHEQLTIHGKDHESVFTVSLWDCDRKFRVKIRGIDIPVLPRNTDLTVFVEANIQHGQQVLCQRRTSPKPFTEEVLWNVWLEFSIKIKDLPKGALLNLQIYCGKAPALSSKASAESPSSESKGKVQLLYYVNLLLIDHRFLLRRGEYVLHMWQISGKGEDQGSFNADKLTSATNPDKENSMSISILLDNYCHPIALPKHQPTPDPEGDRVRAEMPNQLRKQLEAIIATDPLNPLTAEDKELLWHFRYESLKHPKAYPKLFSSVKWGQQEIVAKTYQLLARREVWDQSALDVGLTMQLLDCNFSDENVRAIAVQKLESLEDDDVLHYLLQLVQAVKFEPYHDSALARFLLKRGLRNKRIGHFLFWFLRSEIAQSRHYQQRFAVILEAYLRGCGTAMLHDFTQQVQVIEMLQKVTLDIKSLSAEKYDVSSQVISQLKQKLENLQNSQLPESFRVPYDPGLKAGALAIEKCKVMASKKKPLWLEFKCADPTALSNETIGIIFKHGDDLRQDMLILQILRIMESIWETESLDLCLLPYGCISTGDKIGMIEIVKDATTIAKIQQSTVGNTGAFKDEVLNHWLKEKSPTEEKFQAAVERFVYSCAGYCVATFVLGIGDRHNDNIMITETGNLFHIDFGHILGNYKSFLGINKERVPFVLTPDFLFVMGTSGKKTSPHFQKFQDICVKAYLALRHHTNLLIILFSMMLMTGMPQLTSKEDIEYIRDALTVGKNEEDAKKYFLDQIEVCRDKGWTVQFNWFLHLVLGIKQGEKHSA

[3] = target: PI3Kδ (p110δ/p85α) Recombinant Human Protein (Homo sapiens (Human), UniProt O00329); experiment: PI3Kδ scintillation proximity assay; assay type: biochemical; settings: 2 μM ATP, 20 μM PIP2
Chain of PI3Kδ (p110δ/p85α) Recombinant Human Protein (O00329 whole entry): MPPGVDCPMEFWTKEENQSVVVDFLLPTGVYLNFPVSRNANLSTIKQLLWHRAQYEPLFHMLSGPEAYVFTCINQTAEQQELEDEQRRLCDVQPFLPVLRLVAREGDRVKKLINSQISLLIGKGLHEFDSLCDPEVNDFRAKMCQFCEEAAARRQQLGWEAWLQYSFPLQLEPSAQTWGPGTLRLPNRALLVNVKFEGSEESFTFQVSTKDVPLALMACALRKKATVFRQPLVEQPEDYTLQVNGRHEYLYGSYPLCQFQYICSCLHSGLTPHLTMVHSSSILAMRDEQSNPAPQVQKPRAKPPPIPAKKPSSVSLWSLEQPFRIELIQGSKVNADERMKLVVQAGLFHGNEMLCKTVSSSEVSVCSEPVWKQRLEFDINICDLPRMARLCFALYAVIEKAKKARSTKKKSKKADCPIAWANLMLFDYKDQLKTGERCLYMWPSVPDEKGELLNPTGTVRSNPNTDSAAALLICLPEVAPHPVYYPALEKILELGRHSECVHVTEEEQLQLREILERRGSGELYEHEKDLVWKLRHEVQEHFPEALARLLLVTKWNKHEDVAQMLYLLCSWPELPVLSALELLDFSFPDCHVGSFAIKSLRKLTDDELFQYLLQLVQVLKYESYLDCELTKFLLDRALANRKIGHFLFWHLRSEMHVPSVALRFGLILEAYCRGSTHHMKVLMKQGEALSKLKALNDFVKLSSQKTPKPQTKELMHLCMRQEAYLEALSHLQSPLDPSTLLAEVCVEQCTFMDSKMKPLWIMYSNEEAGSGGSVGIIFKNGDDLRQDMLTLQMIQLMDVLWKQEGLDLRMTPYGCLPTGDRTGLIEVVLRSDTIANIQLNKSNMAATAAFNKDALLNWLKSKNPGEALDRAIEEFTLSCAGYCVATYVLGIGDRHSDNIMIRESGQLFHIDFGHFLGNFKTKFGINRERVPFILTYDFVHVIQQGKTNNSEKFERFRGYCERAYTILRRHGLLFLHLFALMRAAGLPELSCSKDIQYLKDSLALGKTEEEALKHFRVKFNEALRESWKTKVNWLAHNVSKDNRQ
Chain of PI3Kδ (p110δ/p85α) Recombinant Human Protein (P27986 whole entry partner): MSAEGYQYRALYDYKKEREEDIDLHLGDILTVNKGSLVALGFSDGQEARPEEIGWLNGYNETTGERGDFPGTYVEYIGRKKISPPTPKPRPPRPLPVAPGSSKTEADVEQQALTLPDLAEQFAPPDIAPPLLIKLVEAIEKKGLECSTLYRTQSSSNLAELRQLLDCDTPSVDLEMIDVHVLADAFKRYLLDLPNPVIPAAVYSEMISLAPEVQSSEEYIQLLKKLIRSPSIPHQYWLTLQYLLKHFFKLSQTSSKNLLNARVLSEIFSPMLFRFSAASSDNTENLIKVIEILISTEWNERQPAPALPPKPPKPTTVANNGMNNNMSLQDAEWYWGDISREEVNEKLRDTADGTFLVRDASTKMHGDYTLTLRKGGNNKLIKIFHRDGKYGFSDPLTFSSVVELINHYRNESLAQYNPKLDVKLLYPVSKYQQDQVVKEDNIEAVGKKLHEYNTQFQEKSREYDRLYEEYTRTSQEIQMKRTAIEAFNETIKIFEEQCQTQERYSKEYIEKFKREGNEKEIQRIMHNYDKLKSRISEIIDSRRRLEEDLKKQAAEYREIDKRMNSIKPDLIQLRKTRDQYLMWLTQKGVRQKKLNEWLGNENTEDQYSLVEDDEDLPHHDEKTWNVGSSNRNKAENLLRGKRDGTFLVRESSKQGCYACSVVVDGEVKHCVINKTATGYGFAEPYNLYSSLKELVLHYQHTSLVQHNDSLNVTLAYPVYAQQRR

[4] = Homo sapiens, THP-1, THP-1 cells

SMILES	IC50 [1, 4] [nM]	IC50 [2] [nM]	IC50 [3] [nM]	IC50 ([1]; THP-1 cells) [nM]
CC(NC(=O)c1c(N)nn2cccnc12)c1cc(Cl)c2cncn2c1-c1ccc(S(C)(=O)=O)cc1 (racemic) [Example 136, 2-Amino-N-(1-{8-chloro-5-[4-(methylsulfonyl)phenyl]imidazo[1,5-a]pyridin-6-yl}ethyl)pyrazolo[1,5-a]pyrimidine-3-carboxamide trifluoroacetate salt]	> 1000	< 100	< 500	
N#Cc1ncn2c(N3CCCC3)c(CNC(=O)c3c(N)nn4cccnc34)cc(Cl)c12 [Example 173, 2-Amino-N-((8-chloro-1-cyano-5-(pyrrolidin-1-yl)imidazo[1,5-a]pyridin-6-yl)methyl)pyrazolo[1,5-a]pyrimidine-3-carboxamide trifluoroacetate salt]	> 1000	< 500	< 2000	
CC(NC(=O)c1c(N)nn2cccnc12)c1cc(Cl)c2cncn2c1N1C[C@H](O)C[C@@H](O)C1 (mixture of isomers) [Example 155A, 2-Amino-N-(1-{8-chloro-5-[(3R,5R)-3,5-dihydroxypiperidin-1-yl]imidazo[1,5-a]pyridin-6-yl}ethyl)pyrazolo[1,5-a]pyrimidine-3-carboxamide trifluoroacetate salt]	< 500	< 100	< 500	
CC(NC(=O)c1c(N)nn2cccnc12)c1cc(Cl)c2cncn2c1N1CCCS(=O)(=O)CC1 (racemic) [Example 151, 2-Amino-N-{1-[8-chloro-5-(1,1-dioxido-1,4-thiazepan-4-yl)imidazo[1,5-a]pyridin-6-yl]ethyl}pyrazolo[1,5-a]pyrimidine-3-carboxamide trifluoroacetate salt]	< 500	< 100	< 100	
CC(NC(=O)c1c(N)nn2cccnc12)c1cc(Cl)c2cncn2c1-c1cccnc1 (racemic) [Example 127, 2-Amino-N-[1-(8-chloro-5-pyridin-3-ylimidazo[1,5-a]pyridin-6-yl)ethyl]pyrazolo[1,5-a]pyrimidine-3-carboxamide trifluoroacetate salt]	< 500	< 100	< 100	
CC(NC(=O)c1c(N)nn2cccnc12)c1cc(Cl)c2c(Cl)cnn2c1N1CCS(=O)(=O)CC1 (stereo not drawn) [Example 113, 2-Amino-N-{1-[3,4-dichloro-7-(1,1-dioxidothiomorpholin-4-yl)pyrazolo[1,5-a]pyridin-6-yl]ethyl}pyrazolo[1,5-a]pyrimidine-3-carboxamide trifluoroacetate]	< 500	< 100	< 100	
CC(NC(=O)c1c(N)nn2cccnc12)c1cc(Cl)c2cn[nH]c2c1N1CC[C@H](NS(C)(=O)=O)C1 (stereo partly drawn) [Example 96A, 2-Amino-N-[1-(4-chloro-7-{(3S)-3-[(methylsulfonyl)amino]pyrrolidin-1-yl}-2H-indazol-6-yl)ethyl]pyrazolo[1,5-a]pyrimidine-3-carboxamide trifluoroacetate]	< 1000	< 100	< 100	
CC(NC(=O)c1c(N)nn2cccnc12)c1cc(Cl)c2ccnn2c1-c1cccnc1 (stereo not drawn) [Example 59, 2-Amino-N-(1-(4-chloro-7-(pyridin-3-yl)pyrazolo[1,5-a]pyridin-6-yl)ethyl)pyrazolo[1,5-a]pyrimidine-3-carboxamide trifluoroacetate]	< 500	< 100	< 100	
Cc1ncc2c(Cl)cc(C(C)NC(=O)c3c(N)nn4cccnc34)c(-c3cnn(C)c3)n12 (racemic) [Example 119, 2-Amino-N-{1-[8-chloro-3-methyl-5-(1-methyl-1H-pyrazol-4-yl)imidazo[1,5-a]pyridin-6-yl]ethyl}pyrazolo[1,5-a]pyrimidine-3-carboxamide trifluoroacetate salt]	< 500	< 100	< 500	
Cc1ncc2c(Cl)cc(C(C)NC(=O)c3c(N)nn4cccnc34)c(-c3ccccc3)n12 (racemic) [Example 121, 2-Amino-N-[1-(8-chloro-3-methyl-5-phenylimidazo[1,5-a]pyridin-6-yl)ethyl]pyrazolo[1,5-a]pyrimidine-3-carboxamide trifluoroacetate salt]	< 500	< 100	< 500	
CC(NC(=O)c1c(N)nn2cccnc12)c1cc(Cl)c2cncn2c1N1CCN(C)C(=O)C1 (racemic) [Example 154, 2-Amino-N-{1-[8-chloro-5-(4-methyl-3-oxopiperazin-1-yl)imidazo[1,5-a]pyridin-6-yl]ethyl}pyrazolo[1,5-a]pyrimidine-3-carboxamide trifluoroacetate salt]	< 1000	< 500	< 500	
COC1CCN(c2c(C(C)NC(=O)c3c(N)nn4cccnc34)cc(Cl)c3cn[nH]c23)C1 (stereo not drawn) [Example 91, 2-Amino-N-{1-[4-chloro-7-(3-methoxypyrrolidin-1-yl)-2H-indazol-6-yl]ethyl}pyrazolo[1,5-a]pyrimidine-3-carboxamide bis(trifluoroacetate)]	< 1000	< 100	< 100	
CC(NC(=O)c1c(N)nn2cccnc12)c1cc(Cl)c2cn[nH]c2c1OC(F)F (stereo not drawn) [Example 83, 2-Amino-N-(1-(4-chloro-7-(difluoromethoxy)-1H-indazol-6-yl)ethyl)pyrazolo[1,5-a]pyrimidine-3-carboxamide trifluoroacetate]	< 500	< 100	< 100	
CC(NC(=O)c1c(N)nn2cccnc12)c1cc(Cl)c2cncn2c1N1C[C@H](O)C[C@H](C#N)C1 (stereo partly drawn) [Example 157, 2-Amino-N-(1-{8-chloro-5-[(3S,5R)-3-cyano-5-hydroxypiperidin-1-yl]imidazo[1,5-a]pyridin-6-yl}ethyl)pyrazolo[1,5-a]pyrimidine-3-carboxamide trifluoroacetate salt]	< 1000	< 100	< 500	
CC1CN(c2c(C(NC(=O)c3c(N)nn4cccnc34)C3CC3)cc(Cl)c3c(C#N)ncn23)CCS1(=O)=O (stereo not drawn) [Example 176, 2-Amino-N-((8-chloro-1-cyano-5-(2-methyl-1,1-dioxidothio-morpholino)imidazo [1,5-a]pyridin-6-yl)(cyclopropyl)methyl)pyrazolo [1,5-a]pyrimidine-3-carboxamide trifluoroacetate salt]	< 500	< 100	< 2000	
Nc1nn2cccnc2c1C(=O)NC(c1cc(Cl)c2cncn2c1N1CCS(=O)(=O)CC1)C(F)(F)F (racemic) [Example 180, 2-Amino-N-{1-[8-chloro-5-(1,1-dioxidothiomorpholin-4-yl)imidazo[1,5-a]pyridin-6-yl]-2,2,2-trifluoroethyl}pyrazolo[1,5-a]pyrimidine-3-carboxamide trifluoroacetate salt]	< 500	< 100	< 100	
CC(NC(=O)c1c(N)nn2cccnc12)c1cc(Cl)c2cn[nH]c2c1N1CCS(=O)(=O)CC1 (stereo not drawn) [Example 94, 2-Amino-N-{1-[4-chloro-7-(1,1-dioxidothiomorpholin-4-yl)-2H-indazol-6-yl]ethyl}pyrazolo[1,5-a]pyrimidine-3-carboxamide trifluoroacetate]	< 500	< 100	< 500	
CC(NC(=O)c1c(N)nn2cccnc12)c1cc(Cl)c2cncn2c1N1CCCC(O)(C(F)(F)F)C1 (single isomer, unassigned) [Example 78B, 2-Amino-N-(1-{8-chloro-5-[3-hydroxy-3-(trifluoromethyl)piperidin-1-yl]imidazo[1,5-a]pyridin-6-yl}ethyl)pyrazolo[1,5-a]pyrimidine-3-carboxamide trifluoroacetate]		< 100	< 100	< 500
CC(C)C(NC(=O)c1c(N)nn2cccnc12)c1cc(Cl)c2cncn2c1N1CCS(=O)(=O)CC1 (racemic) [Example 181, 2-Amino-N-(1-(8-chloro-5-(1,1-dioxidothiomorpholino)imidazo[1,5-a]pyridin-6-yl)-2-methylpropyl)pyrazolo[1,5-a]pyrimidine-3-carboxamide trifluoroacetate salt]	< 500	< 100	< 100	
CC(NC(=O)c1c(N)nn2cccnc12)c1cc(Cl)c2cncn2c1N1CCCC1(C)C (stereo not drawn) [Example 70, 2-Amino-N-{1-[8-chloro-5-(2,2-dimethylpyrrolidin-1-yl)imidazo[1,5-a]pyridin-6-yl]ethyl}pyrazolo[1,5-a]pyrimidine-3-carboxamide bistrifluoroacetate]	< 500	< 100	< 100	
CC1CN(c2c(CNC(=O)c3c(N)nn4cccnc34)cc(Cl)c3c(Cl)ncn23)CCS1(=O)=O (racemic) [Example 169, 2-Amino-N-((1,8-dichloro-5-(2-methyl-1,1-dioxidothiomorpholino)imidazo[1,5-a]pyridin-6-yl)methyl)pyrazolo[1,5-a]pyrimidine-3-carboxamide trifluoroacetate salt]	< 500	< 100	< 500	
CC(NC(=O)c1c(N)nn2cccnc12)c1cc(Cl)c2cnnn2c1-c1ccccc1 (stereo not drawn) [Example 63, 2-Amino-N-(1-(4-chloro-7-phenyl-[1,2,3]triazolo[1,5-a]pyridin-6-yl)ethyl)pyrazolo[1,5-a]pyrimidine-3-carboxamide trifluoroacetate]	< 500	< 500	< 500	
CC(NC(=O)c1c(N)nn2cccnc12)c1cc(Cl)c2cncn2c1N1CCC(C)(C#N)CC1 (stereo not drawn) [Example 88, 2-Amino-N-(1-(8-chloro-5-(4-cyano-4-methylpiperidin-1-yl)imidazo[1,5-a]pyridin-6-yl)ethyl)pyrazolo[1,5-a]pyrimidine-3-carboxamide trifluoroacetate]	< 500	< 100	< 100	
